Laboratory results reported in ChEMBL document CHEMBL1201862, “PubChem BioAssay data set” (2004).
The source made the active and inactive calls.

Columns and labels:
[1] = target: Beta-2 adrenergic receptor (Homo sapiens, UniProt P07550); assay: ADRB2 activation measured by internalization – cell-based, FAP fluorogen, flow cytometry, cherry pick 1, dose response (AID 588763); assay type: functional
[2] = target: Luciferin 4-monooxygenase (Photinus pyralis, UniProt P08659); assay: inhibition of purified Photinus pyralis luciferase – biochemical, luminescence, dose response (AID 1891)
Luciferin 4-monooxygenase, sequence (P08659 whole entry): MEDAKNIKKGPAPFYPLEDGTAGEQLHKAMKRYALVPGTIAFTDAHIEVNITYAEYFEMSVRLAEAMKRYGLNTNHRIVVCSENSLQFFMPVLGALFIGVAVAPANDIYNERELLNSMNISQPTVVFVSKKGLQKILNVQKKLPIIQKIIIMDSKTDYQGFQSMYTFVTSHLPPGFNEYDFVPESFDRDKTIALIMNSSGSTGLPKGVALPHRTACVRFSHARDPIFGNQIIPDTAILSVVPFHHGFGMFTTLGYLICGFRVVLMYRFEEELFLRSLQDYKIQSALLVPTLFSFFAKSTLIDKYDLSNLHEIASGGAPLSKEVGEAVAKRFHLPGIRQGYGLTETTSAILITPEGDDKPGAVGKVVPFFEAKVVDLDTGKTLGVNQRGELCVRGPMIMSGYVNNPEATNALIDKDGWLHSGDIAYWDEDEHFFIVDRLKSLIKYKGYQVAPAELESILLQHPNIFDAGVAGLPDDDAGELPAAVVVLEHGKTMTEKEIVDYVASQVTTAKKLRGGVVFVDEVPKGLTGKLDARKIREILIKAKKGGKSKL

CAAX prenyl protease 2 [3] = target: CAAX prenyl protease 2 (Homo sapiens, UniProt Q9Y256); assay: inhibition of Ras-converting CAAX endoprotease – biochemical, plate reader, dry powder samples, dose response (AID 588848)
CAAX prenyl protease 2 (Homo sapiens, UniProt Q9Y256), sequence (Q9Y256 whole entry): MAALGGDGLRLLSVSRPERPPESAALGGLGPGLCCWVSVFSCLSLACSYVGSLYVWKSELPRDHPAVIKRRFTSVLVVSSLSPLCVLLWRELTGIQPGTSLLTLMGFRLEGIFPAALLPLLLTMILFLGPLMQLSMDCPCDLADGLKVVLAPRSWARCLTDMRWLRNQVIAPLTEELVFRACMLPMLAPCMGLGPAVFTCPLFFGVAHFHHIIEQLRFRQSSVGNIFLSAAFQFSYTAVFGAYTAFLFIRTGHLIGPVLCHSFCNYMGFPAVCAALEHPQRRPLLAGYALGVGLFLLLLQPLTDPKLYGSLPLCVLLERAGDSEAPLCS

[4] = Luminescence Cell-Based Dose Confirmation HTS to Identify Inhibitors of Platelet Dense Granule Release. [Related pubchem assays: 1663 (Primary HTS), 1678 (Summary of Project)]; assay type: functional
CAAX prenyl protease 2 [5] = target: CAAX prenyl protease 2 (Saccharomyces cerevisiae S288c, UniProt Q03530); assay type: biochemical
CAAX prenyl protease 2 (Saccharomyces cerevisiae S288c, UniProt Q03530), sequence (Q03530 whole entry): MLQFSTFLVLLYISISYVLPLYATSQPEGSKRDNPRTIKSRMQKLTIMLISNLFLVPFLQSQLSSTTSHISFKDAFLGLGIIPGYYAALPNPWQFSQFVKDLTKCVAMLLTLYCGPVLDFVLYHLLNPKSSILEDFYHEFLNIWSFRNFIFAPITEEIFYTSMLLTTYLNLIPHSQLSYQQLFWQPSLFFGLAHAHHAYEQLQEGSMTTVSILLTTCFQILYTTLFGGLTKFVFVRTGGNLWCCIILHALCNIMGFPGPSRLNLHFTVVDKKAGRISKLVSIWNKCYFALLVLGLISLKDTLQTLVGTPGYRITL

[6] = toxicity toward cultured mammalian cells – cell-based, plate reader, cherry-pick samples, cytotoxicity control, dose response (AID 504397); assay type: functional
Hexokinase HKDC1 = Hexokinase HKDC1 (Homo sapiens, UniProt Q2TB90); assay: SAR analysis of small molecule inhibitors of hexokinase domain containing I (HKDC1). [Related pubchem assays (depositor defined):AID493160, AID493190]; assay type: functional
Hexokinase-1 = Hexokinase-1 (Homo sapiens, UniProt P19367); assay: SAR analysis of small molecule inhibitors of hexokinase domain containing I (HKDC1) in the hexokinase 1 selectivity assay. [Related pubchem assays (depositor defined):AID493160, AID493190]; assay type: functional
[7] = OVCAR-3 cell viability loss – plate reader, dry powder samples, PAX8 inhibitor project, dose response (AID 743044); assay type: functional, cell-based
HEK293 [8] = assay: inhibition of NOD1-driven NF-kB reporter – cell-based, luminescence, uHTS, primary screen (AID 1578); assay type: functional; conditions: Homo sapiens
HEK293 [9] = assay: cells; assay type: functional, cell-based; conditions: Homo sapiens
HEK293 [10] = assay: cells; assay type: functional, cell-based; conditions: Homo sapiens; remark: listed apart in the source
[11] = A2780 cell killing – plate reader, dry powder samples, cytotoxicity control, dose response (AID 743046); assay type: functional, cell-based
[12] = blockers of HIV-1 envelope-mediated cell-cell fusion – cherry-pick, dose response (AID 652057); assay type: functional, cell-based
[13] = target: T1, Microphthalmia-associated transcription factor (Homo sapiens, UniProt O75030); assay: reducers of TRPM1 reporter luminescence, concentration series – cell-based, SK-MEL-5, cherry-picked, set 3, MITF inhibitor project, dose response (AID 493073); assay type: functional;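 note: SK-MEL-5 melanoma cells with luciferase driven by the MITF target TRPM1 promoter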
T1 sequence (O75030 whole entry): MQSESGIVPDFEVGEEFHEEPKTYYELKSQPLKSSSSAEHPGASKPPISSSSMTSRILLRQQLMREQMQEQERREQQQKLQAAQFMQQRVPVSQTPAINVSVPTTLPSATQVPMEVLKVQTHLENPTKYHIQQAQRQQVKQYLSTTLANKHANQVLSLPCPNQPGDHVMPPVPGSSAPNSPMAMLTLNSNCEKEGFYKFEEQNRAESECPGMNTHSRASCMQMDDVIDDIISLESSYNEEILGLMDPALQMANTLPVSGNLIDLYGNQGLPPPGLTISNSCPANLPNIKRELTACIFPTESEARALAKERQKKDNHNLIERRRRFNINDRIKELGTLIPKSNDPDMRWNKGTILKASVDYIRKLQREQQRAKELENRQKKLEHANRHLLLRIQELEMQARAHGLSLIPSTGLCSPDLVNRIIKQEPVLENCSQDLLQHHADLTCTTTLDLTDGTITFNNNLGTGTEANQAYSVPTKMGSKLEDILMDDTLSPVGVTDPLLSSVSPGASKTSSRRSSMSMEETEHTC

HEK293 [14] = assay: NOD2 signaling inhibitors in MDP-stimulated cells, cell-based, uHTS, luminescence (AID 2001); assay type: functional; conditions: Homo sapiens
[15] = target: Nucleotide-binding oligomerization domain-containing protein 2 (Homo sapiens, UniProt Q9HC29); assay: inhibition of NOD2-driven NF-kB reporter – cell-based, luminescence, uHTS, HEK293 (AID 1566); assay type: functional
Nucleotide-binding oligomerization domain-containing protein 2, sequence (Q9HC29 whole entry, the tested form may be a part): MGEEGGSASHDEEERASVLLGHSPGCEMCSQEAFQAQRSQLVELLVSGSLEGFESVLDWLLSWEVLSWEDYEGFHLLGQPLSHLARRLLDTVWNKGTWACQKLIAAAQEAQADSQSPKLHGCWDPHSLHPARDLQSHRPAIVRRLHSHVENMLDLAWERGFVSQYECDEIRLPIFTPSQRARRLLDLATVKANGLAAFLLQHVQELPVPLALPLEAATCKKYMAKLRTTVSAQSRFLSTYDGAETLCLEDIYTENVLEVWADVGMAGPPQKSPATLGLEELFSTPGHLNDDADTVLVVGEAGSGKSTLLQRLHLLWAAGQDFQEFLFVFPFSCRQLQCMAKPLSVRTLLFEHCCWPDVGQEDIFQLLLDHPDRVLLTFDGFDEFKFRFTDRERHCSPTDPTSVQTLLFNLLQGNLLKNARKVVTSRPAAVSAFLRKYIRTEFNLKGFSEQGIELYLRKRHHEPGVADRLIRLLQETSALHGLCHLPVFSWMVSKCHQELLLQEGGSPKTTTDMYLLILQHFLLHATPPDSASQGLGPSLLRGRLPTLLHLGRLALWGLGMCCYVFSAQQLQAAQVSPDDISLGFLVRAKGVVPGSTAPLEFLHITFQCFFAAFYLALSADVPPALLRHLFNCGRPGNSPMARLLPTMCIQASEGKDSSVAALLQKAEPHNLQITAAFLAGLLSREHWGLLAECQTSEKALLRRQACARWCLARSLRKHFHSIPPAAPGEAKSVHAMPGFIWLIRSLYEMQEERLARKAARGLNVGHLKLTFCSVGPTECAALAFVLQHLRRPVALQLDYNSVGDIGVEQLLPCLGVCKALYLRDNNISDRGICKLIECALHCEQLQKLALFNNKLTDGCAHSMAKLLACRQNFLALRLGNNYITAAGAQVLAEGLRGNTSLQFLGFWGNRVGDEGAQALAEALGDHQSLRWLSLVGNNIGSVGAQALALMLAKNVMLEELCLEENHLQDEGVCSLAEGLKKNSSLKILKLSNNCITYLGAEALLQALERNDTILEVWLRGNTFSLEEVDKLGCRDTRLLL

[16] = OV-90 cell viability loss – plate reader, dry powder, SA8, PAX8 inhibitor project, dose response (AID 743149); assay type: functional, cell-based
[17] = off-target signal loss in HeLa-CEM21 co-culture – HeLa F-luc CTL cells, cherry-picked, counter-screen for HIV-1 Env fusion inhibitor project, dose response (AID 652040); assay type: functional, cell-based;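 note: potency for signal decrease marking cytotoxic or nonspecific inhibition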
INS1 = assay: INS-1E survival protection against cytokine death – cell-based, luminescence, retest, dose response (AID 449756); assay type: functional; conditions: Rattus norvegicus;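 note: cell death triggered by IL-1 beta plus TNF-alpha plus IFN-gamma mixture; protective hits raise ATP signal compared with cytokine alone wells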
[18] = viability loss in CEM21 cells – cell-based, CellTiter-Glo luminescence, cherry-picked, cytotoxicity control for viral fusion inhibitor project, dose response (AID 652042); assay type: functional;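 note: potency for signal decrease meaning cytotoxicity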
Paired box protein Pax-8 = Paired box protein Pax-8 (Homo sapiens, UniProt Q06710); assay: PAX8 transcriptional activity inhibition in RMG-I – RMG-I cells, luciferase, cherry-pick, dose response (AID 687027); assay type: functional, cell-based;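 note: luciferase reporter driven by Pax8 target thyroperoxidase promoter measured by SteadyGlo luminescence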
A-375 = assay: proliferation inhibition in MITF-low A375 cells – cell-based, cherry-pick samples, set 2, counter-screen for MITF modulator project, dose response (AID 540335); assay type: functional; conditions: Homo sapiens
HEK293 [19] = assay: cells; assay type: functional, cell-based; conditions: Homo sapiens; remark: listed apart in the source
[20] = blockers of HIV-1 ZM109 envelope-driven cell-cell fusion – HeLa effector, CEM target cells, luciferase, cherry-pick, dose response (AID 652058); assay type: functional, cell-based;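 note: luciferase signal from HIV-1 Env mediated cell-cell fusion of effector and target cells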
[21] = HIV-1 AD8 envelope cell-cell fusion blockers – cherry-pick, dose response (AID 652062); assay type: functional, cell-based;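 note: luciferase signal from cell-cell fusion driven by HIV-1 clade B AD8 Env; potency is for inhibitors of fusion seen as a drop in luminescence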
[22] = PAX5 cellular inhibition readout – cell-based, plate reader, dry powder samples, selectivity assay for PAX8 inhibitor project, dose response (AID 743047); assay type: functional;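 note: HEK293 cells carrying a Pax5 driven CD19 promoter luciferase reporter; potency of inhibitors that lower reporter luminescence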
[23] = inhibitors acting on PAX2 in cells – cell-based, plate reader, dry powder samples, selectivity assay for PAX8 inhibitor project, dose response (AID 743048); assay type: functional;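 note: HEK293 cells carrying a WT1 promoter luciferase reporter driven by expressed Pax2; potency is for inhibition of Pax2 driven reporter signal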
[24] = COV434 cell viability loss – plate reader, dry powder, SA7, cytotoxicity control for PAX8 inhibitor project, dose response (AID 743145); assay type: functional, cell-based
[25] = PAX8-dependent cell viability loss – plate reader, dry powder, dose response (AID 743049); assay type: functional, cell-based
Phospholipase D1 [26] = target: T2, Phospholipase D1 (Homo sapiens, UniProt Q13393); assay: PLD1 purified enzyme concentration response. [Related pubchem assays (depositor defined):AID588854]; assay type: functional
T2 sequence (Q13393 whole entry): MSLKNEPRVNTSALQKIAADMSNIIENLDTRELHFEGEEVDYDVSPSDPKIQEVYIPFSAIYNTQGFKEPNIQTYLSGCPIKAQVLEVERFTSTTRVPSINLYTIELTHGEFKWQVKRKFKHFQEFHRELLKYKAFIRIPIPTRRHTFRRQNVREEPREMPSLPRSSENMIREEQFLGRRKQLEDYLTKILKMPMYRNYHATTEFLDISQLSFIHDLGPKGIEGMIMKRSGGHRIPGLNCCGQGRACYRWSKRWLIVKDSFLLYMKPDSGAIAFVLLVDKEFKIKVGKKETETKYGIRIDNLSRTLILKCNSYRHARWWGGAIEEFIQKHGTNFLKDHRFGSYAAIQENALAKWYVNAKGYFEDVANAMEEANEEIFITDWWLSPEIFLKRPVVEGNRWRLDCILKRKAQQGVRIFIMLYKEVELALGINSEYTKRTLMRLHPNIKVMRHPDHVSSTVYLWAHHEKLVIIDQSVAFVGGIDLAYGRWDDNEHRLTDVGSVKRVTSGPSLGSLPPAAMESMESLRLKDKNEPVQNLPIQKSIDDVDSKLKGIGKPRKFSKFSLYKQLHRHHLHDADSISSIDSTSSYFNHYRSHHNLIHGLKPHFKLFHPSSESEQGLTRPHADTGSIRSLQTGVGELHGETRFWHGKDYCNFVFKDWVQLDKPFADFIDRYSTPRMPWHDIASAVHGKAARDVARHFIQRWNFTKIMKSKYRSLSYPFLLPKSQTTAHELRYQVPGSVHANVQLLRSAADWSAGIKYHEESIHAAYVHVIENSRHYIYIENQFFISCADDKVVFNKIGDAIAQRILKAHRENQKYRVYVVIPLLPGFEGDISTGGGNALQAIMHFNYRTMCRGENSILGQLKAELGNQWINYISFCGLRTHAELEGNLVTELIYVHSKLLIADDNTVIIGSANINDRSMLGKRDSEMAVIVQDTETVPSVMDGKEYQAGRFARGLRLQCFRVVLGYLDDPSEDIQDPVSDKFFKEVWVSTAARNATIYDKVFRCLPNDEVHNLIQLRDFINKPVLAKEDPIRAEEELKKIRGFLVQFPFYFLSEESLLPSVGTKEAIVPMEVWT

Phospholipase D2 [27] = target: T3, Phospholipase D2 (Homo sapiens, UniProt O14939); assay: PLD2 purified enzyme concentration response. [Related pubchem assays (depositor defined):AID588854]; assay type: functional
T3 sequence (O14939 whole entry): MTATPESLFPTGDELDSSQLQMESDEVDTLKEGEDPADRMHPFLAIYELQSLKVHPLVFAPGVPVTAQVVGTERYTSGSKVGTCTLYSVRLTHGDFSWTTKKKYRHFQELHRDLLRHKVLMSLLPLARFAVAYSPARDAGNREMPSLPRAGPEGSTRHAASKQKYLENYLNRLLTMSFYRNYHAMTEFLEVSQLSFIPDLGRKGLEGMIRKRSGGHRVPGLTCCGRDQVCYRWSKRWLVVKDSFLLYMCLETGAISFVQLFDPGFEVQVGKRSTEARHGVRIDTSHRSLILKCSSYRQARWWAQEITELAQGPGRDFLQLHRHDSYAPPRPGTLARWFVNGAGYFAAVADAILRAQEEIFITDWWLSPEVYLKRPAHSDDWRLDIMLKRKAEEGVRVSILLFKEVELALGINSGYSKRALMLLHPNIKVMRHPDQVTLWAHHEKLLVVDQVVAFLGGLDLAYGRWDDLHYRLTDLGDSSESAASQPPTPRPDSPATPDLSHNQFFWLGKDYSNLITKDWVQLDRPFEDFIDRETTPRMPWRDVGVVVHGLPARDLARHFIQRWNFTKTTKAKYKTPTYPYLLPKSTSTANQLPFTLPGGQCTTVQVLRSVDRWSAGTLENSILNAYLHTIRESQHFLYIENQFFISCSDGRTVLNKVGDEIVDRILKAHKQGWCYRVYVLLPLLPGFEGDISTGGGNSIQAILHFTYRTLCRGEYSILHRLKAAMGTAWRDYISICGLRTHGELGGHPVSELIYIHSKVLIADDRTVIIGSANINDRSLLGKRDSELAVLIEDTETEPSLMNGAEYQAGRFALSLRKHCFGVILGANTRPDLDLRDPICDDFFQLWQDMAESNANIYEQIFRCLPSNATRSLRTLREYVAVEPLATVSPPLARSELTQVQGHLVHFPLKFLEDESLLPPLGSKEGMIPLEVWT

Phospholipase D1 [28] = target: T2, Phospholipase D1; assay: cellular phospholipase D1 inhibition IC50 – cell-based, dose response (AID 602151); assay type: functional;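 note: cellular PLD1 assay in Calu-1 cells stimulated with PMA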
Phospholipase D2 [29] = target: T3, Phospholipase D2; assay: cellular phospholipase D2 inhibition IC50 – cell-based, dose response (AID 602147); assay type: functional;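 note: cellular assay in HEK293 cells overexpressing GFP-tagged PLD2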
Oxytocin receptor = Oxytocin receptor (Homo sapiens, UniProt P30559); assay: Fluorescence-based cell-based high throughput dose response assay for potentiators of Oxytocin Receptor (OXTR). [Related pubchem assays: 434985 (Confirmation screen (OXTR potentiators in triplicate)), 2481 (Summary (OXTR potentiators)), 2445 (Primary screen (OXTR potentiators in singlicate))]; assay type: functional
Oxytocin receptor, sequence (P30559 whole entry): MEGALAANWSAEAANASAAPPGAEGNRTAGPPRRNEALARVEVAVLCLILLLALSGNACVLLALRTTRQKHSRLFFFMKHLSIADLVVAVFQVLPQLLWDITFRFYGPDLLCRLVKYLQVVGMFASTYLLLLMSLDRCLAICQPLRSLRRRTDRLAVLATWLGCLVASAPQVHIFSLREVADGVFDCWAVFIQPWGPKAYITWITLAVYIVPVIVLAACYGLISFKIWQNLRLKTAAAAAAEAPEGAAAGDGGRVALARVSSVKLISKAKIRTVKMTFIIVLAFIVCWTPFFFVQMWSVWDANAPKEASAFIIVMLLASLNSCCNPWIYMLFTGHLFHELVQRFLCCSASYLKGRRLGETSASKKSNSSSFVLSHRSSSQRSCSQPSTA

Large T antigen = Large T antigen (Simian virus 40, UniProt P03070); assay type: functional, Betapolyomavirus macacae;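 note: Confirmatory-stage PubChem screen for compounds that inhibit SV40 T antigen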
Procathepsin L = Procathepsin L (Homo sapiens, UniProt P07711)
Aspartyl aminopeptidase = target: T4, Aspartyl aminopeptidase (Plasmodium falciparum 3D7, UniProt Q8I2J3)
T4 sequence (Q8I2J3 whole entry): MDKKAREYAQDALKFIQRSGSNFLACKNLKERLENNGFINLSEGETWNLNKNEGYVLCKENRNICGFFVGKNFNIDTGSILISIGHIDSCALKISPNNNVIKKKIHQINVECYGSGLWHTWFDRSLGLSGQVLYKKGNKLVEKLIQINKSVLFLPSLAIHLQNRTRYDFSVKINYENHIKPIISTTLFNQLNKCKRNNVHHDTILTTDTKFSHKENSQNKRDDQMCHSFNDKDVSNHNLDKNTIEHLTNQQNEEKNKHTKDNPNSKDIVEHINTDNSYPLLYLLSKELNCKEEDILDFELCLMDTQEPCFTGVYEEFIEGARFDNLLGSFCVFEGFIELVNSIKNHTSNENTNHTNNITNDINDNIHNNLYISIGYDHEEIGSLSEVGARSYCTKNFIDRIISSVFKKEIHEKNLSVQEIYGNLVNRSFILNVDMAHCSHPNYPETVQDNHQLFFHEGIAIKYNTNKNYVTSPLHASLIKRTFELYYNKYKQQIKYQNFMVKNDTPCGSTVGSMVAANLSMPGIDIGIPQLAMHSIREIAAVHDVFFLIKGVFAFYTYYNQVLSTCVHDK

[30] = target: Latent membrane protein 1 (Human herpesvirus 4 (strain B95-8), UniProt P03230); assay: LMP1 TES1 pathway selectivity over dsRED control – imaging, HEK293T, dual-color eGFP/dsRED, cherry-picks, selectivity assay for LMP1 NF-kB inhibitor project, dose response (AID 588398); assay type: functional, cell-based

Beta-2 adrenergic receptor, sequence (P07550 whole entry): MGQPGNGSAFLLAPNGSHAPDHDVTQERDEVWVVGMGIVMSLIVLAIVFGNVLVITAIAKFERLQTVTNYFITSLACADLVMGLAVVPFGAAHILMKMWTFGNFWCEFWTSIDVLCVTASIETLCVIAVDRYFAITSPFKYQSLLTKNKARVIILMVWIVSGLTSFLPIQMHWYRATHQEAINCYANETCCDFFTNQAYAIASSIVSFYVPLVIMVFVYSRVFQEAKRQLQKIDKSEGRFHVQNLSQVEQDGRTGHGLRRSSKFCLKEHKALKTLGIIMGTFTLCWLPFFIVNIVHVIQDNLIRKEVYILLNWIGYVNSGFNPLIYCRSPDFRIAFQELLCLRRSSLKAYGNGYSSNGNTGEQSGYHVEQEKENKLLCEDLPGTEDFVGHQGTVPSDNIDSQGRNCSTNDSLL

In the case of `O=C(NCCCn1ccnc1)C1CCCN(S(=O)(=O)c2cc(Cl)ccc2Cl)C1` (centres undefined), the EC50 [1] is reported as 0.999 µM (active).

For `O=C(COC(=O)/C=C/c1cn(-c2ccccc2)nc1-c1ccc2c(c1)OCCO2)NC1CCS(=O)(=O)C1` (centres undefined), the EC50 [2] was > 112 µM (not active), the AC50 (CAAX prenyl protease 2 [3]) was 17.4 µM (active) and the EC50 [4] was > 112 µM (not active). For the same compound, the AC50 (CAAX prenyl protease 2 [5]) was 0.542 µM (active) and the AC50 [6] was 89.2 µM (active).

In the case of `COc1ccc(/C=C/c2nc3ccccc3c(=O)n2Cc2ccccc2)cc1`, the IC50 (Hexokinase HKDC1) is reported as > 80 µM (inactive) and the IC50 (Hexokinase-1) is reported as > 80 µM (inactive).

With `CCSCCc1nnc(NC(=O)Nc2cccc(C(F)(F)F)c2)s1` the AC50 [7] was 27.4 µM (active), the EC50 (HEK293 [8]) was 2.16 µM (active) and the IC50 (HEK293 [9]) was 9.13 µM (active). For the same compound, the IC50 (HEK293 [10]) was 2.57 µM (active), the AC50 [11] was 8.04 µM (active) and the AC50 [12] was 5.97 µM (active). The AC50 [13] was 8.99 µM (active), the IC50 (HEK293 [14]) was 2.68 µM (active) and the EC50 [15] was 15 µM (active). The AC50 [16] was > 100 µM (inactive), the AC50 [17] was 3.56 µM (active) and the AC50 (INS1) was 3.91 µM (active). For the same compound, the AC50 [18] was 5.2 µM (active), the AC50 (Paired box protein Pax-8) was 7.31 µM (active) and the AC50 (A-375) was 6.62 µM (active). The IC50 (HEK293 [19]) was > 20 µM (inactive), the AC50 [20] was 4.07 µM (active) and the AC50 [21] was 7.84 µM (active). The AC50 [22] was 5.02 µM (active), the AC50 [23] was 5.05 µM (active) and the AC50 [24] was 35.2 µM (active). For the same compound, the AC50 [25] was 23.1 µM (active).

With `O=C(NCCN1CCC2(CC1)C(=O)NCN2c1cccc(F)c1)c1cnc2ccccc2c1` the IC50 (Phospholipase D1 [26]) was 2.8 µM (active) and the IC50 (Phospholipase D2 [27]) was 0.13 µM (active).

In the case of `CN1CN(c2ccccc2)C2(CCN(CCNC(=O)c3ccc4ccccc4c3)CC2)C1=O`, the IC50 (Phospholipase D1 [28]) is reported as 2.8 µM (active) and the IC50 (Phospholipase D2 [29]) is reported as 20 µM (active).

With `O=c1c(O)c(-c2ccc(O)c(O)c2)oc2cc(O)cc(O)c12` [QUERCETIN DIHYDRATE] the EC50 (Oxytocin receptor) was > 29.9 µM (not active), the IC50 (Large T antigen) was 16.1 µM (active) and the IC50 (Procathepsin L) was > 59.6 µM (not active). The IC50 (Aspartyl aminopeptidase) was 0.385 µM (active) and the AC50 [30] was 233 µM (active).
